Experimental data published in patent US9517993B2, “Antagonists of the toll-like receptor 1/2 complex” (THE REGENTS OF THE UNIVERSITY OF COLORADO, a body corporate, priority 2012, dated 2016).

What was measured:
[1] = target: T1, TLR4 (Mus musculus, UniProt Q9JHF9+Q9QUK6); assay: RAW 264.7 nitric oxide TLR selectivity assay (LPS); assay type: cell-based; settings: 10 ng/mL LPS
T1 construct: RAW 264.7 Cells Nitric Oxide TLR Selectivity Assay; endogenous in cells; host or cells: RAW 264.7
T1 sequence (Q9QUK6 26-835): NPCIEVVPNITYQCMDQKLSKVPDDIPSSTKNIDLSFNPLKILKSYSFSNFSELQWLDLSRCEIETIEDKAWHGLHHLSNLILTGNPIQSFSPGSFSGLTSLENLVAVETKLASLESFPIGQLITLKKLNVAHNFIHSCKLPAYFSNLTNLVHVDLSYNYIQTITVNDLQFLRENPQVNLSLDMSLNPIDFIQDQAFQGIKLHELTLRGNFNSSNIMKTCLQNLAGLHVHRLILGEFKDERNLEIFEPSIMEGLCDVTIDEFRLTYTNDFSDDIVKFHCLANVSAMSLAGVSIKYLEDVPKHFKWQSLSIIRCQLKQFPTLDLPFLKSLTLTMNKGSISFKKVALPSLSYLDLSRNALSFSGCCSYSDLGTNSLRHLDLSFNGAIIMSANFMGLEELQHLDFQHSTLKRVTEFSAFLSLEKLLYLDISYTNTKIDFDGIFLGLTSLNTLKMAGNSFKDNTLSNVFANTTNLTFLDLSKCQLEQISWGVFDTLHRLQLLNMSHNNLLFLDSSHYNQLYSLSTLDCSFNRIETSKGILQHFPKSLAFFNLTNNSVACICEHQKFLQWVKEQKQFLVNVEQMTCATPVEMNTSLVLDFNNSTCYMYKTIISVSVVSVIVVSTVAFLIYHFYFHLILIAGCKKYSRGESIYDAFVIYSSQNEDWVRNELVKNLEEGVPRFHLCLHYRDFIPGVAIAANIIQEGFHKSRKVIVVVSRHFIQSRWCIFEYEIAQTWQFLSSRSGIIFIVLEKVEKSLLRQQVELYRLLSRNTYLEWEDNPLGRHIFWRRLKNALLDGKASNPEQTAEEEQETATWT
T1 sequence (Q9JHF9 19-160): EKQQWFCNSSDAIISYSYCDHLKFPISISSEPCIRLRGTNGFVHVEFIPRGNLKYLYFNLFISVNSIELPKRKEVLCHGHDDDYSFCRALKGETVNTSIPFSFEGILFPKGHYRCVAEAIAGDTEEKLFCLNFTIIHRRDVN
Procedure: (§1) RAW 264.7 (Mouse leukaemic monocyte macrophage cell line) cells were grown in RPMI 1640 medium, supplemented with 10% FBS, penicillin (100 U/mL) and streptomycin ([…]). RAW cells were then planted in 96-well plates at 80,000 cells per well and grown for 24 h in the media descried previously at 37° C. in a 5% CO2 humidified incubator. After 24 h, non-adherent cells and media were removed and replaced with fresh unsupplemented RPMI 1640 medium. The adherent macrophages were treated with Pam3CSK4 (CAS No. 112208-00-1; a synthetic triacylated lipopeptide (LP) that mimics the acylated amino terminus of bacterial LPs) (200 ng/mL) (Invivogen, USA), an agonist of TLR1/2, and then added different concentrates of potential inhibitor. Two rows were only treated with Pam3CSK4 as control. […] The reaction was quenched by addition of 5 μL of a 3 M aqueous NaOH solution and the plate was read on Beckman Coulter DTX880 reader (Beckman Coulter, Calif., USA) with excitation at 365 nm and emission at 450 nm. The nitrite (a stable metabolite of nitric oxide) concentration was determined from a nitrite standard curve. The inhibition rate (%) of NO release was determined using the following formula: Inhibition (%)=[Pam3CSK4(OD450) […]]/[Pam3CSK4 (OD450)−Control (OD450)]×100. The IC50 values for both inhibition and cytotoxicity were determined graphically using software Origin v7.5. […]

[2] = target: T2, TLR7 (Mus musculus, UniProt P58681); assay: RAW 264.7 nitric oxide TLR selectivity assay (R848); assay type: cell-based; settings: 100 nM R848
T2 construct: RAW 264.7 Cells Nitric Oxide TLR Selectivity Assay; endogenous in cells; host or cells: RAW 264.7
T2 sequence (P58681 27-1050): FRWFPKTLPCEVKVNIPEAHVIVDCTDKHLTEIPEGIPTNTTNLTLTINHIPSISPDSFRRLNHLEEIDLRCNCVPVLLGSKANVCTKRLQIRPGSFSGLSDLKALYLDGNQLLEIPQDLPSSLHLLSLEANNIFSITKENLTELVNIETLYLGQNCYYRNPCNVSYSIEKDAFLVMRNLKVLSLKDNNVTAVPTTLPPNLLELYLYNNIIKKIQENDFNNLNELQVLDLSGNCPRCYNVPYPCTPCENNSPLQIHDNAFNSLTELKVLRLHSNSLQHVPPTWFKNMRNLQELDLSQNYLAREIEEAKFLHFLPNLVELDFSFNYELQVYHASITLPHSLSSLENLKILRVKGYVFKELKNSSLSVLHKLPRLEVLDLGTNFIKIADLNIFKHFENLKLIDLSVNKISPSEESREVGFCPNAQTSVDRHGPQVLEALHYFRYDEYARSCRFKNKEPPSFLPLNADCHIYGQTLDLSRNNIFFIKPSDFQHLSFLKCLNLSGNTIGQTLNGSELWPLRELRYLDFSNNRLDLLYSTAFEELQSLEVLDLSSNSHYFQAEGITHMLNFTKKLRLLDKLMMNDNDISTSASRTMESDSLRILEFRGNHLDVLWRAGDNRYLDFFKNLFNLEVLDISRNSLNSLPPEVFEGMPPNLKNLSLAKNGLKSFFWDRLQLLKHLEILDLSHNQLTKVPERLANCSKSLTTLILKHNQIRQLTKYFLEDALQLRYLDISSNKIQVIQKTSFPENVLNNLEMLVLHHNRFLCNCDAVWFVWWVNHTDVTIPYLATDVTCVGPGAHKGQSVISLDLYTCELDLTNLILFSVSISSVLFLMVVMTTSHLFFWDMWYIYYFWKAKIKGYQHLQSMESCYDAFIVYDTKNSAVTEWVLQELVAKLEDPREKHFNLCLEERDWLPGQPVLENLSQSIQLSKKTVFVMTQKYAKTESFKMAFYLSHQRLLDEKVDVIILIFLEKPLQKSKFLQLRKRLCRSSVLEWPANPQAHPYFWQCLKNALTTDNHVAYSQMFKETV
Procedure: as §1

| SMILES | inhibition of TLR4 signaling ([1]; 0.5 μM compound) | inhibition of TLR7 signaling ([2]; 0.5 μM compound) | inhibition of TLR4 signaling ([1]; 3 μM compound) | inhibition of TLR7 signaling ([2]; 3 μM compound) |
| --- | --- | --- | --- | --- |
| CCCCCCOC(=O)c1cc(O)c(=O)c2c(O)c(O)c(OC)cc2c1 [compound 17, Hexyl 3,4,6-trihydroxy-2-methoxy-5-oxo-5H-benzo[7]annulene-8-carboxylate] | without affecting other TLRs | without affecting other TLRs |  |  |
| O=c1c(O)cccc2cc(O)c(O)c(O)c12 [NCI35676, purpurogallin, reference compound] |  |  | no other homologous TLRs | no other homologous TLRs |
